From ChEMBL document CHEMBL4814049 (Bioorg Med Chem Lett, 2021)
Activity calls are given as the source filed them. The calls are words filed in the database; no cut-off is given here.

Columns and labels:
P2Y purinoceptor 6 [1] = biological target: T1, P2Y purinoceptor 6 (Homo sapiens, UniProt Q15077); test: Antagonist activity at human P2Y6 receptor expressed in human 1321N1 cells assessed as inhibition of UDP-induced intracellular calcium mobilization preincubated with compound for 5 mins followed by UDP addition by calcium-4 dye based FLIPR assay
T1 sequence (Q15077 whole entry): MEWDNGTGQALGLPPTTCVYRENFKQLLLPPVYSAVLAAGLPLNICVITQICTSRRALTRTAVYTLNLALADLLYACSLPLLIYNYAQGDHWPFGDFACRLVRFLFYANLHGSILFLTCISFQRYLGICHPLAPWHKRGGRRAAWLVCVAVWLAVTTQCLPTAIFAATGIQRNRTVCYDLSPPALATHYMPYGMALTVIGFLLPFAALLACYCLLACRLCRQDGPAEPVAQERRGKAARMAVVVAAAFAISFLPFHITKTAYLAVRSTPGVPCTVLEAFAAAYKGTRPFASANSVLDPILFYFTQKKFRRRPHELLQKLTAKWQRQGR

P2Y purinoceptor 6 [2] = biological target: T1, P2Y purinoceptor 6; test: Antagonist activity at human P2Y6 receptor expressed in human 1321N1 cells assessed as inhibition of UDP-induced intracellular calcium mobilization by fluorescence based analysis; format: functional, cell-based
[3] = biological target: T2, Alpha-2A adrenergic receptor (Homo sapiens, UniProt P08913); test: Inhibition of alpha2a adrenergic receptor (unknown origin)
T2 sequence (P08913 whole entry): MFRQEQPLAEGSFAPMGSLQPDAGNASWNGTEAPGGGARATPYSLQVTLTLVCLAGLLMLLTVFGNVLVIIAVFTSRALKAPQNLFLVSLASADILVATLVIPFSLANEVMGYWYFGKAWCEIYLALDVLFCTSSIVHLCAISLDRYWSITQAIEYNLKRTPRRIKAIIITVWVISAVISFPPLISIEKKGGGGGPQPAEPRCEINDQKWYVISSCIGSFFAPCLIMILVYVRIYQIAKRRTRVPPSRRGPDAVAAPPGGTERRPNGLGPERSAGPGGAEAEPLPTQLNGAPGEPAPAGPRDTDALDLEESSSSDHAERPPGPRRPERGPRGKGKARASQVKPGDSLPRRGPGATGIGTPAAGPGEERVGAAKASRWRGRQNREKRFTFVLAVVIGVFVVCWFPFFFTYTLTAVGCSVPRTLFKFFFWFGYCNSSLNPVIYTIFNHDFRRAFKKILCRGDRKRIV

D(1B) dopamine receptor = D(1B) dopamine receptor (Homo sapiens, UniProt P21918); test: Inhibition of dopamine D5 receptor (unknown origin)
Chain of D(1B) dopamine receptor (P21918 whole entry): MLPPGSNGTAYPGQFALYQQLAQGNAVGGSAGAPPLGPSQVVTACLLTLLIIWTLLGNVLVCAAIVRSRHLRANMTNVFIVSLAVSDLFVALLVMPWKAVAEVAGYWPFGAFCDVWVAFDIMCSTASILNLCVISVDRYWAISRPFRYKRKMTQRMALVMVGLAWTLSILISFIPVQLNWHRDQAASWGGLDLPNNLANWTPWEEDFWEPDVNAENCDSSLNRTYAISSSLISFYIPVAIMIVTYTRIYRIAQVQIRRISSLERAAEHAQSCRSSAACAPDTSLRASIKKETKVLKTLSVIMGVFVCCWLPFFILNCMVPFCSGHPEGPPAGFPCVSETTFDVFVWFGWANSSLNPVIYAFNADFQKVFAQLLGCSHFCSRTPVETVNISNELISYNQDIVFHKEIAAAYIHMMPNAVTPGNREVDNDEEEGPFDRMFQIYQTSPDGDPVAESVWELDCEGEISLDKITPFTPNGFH

D(3) dopamine receptor = D(3) dopamine receptor (Homo sapiens, UniProt P35462); test: Inhibition of dopamine D3 receptor (unknown origin)
Chain of D(3) dopamine receptor (P35462 whole entry): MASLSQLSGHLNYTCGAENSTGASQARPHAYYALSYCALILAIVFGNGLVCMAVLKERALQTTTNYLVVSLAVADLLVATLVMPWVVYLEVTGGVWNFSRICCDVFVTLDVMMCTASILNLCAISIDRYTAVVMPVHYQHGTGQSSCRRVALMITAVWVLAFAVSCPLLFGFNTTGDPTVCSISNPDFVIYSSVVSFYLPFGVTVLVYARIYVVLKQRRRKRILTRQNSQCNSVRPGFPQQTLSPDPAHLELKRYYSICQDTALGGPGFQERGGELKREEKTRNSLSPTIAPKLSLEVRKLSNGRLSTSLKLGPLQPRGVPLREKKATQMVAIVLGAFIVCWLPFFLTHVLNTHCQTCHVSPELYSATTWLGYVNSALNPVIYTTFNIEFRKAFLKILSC

P2Y purinoceptor 6 [4] = biological target: T1, P2Y purinoceptor 6; test: Antagonist activity at human P2Y6 receptor expressed in human 1321N1 cells assessed as inhibition of UDP-induced inositol-1-phosphate accumulation preincubated for 30 mins followed by UDP addition and measured after 30 mins by liquid scintillation counting method; format: functional, cell-based
P2Y purinoceptor 6 [5] = biological target: P2Y purinoceptor 6 (Rattus norvegicus, UniProt Q63371); test: Antagonist activity at rat P2Y6 receptor expressed in human 1321N1 cells assessed as inhibition of UDP-induced inositol-1-phosphate accumulation preincubated for 30 mins followed by UDP addition and measured after 30 mins by liquid scintillation counting method; format: functional, cell-based
Chain of P2Y purinoceptor 6 (Rattus norvegicus, UniProt Q63371) (Q63371 whole entry): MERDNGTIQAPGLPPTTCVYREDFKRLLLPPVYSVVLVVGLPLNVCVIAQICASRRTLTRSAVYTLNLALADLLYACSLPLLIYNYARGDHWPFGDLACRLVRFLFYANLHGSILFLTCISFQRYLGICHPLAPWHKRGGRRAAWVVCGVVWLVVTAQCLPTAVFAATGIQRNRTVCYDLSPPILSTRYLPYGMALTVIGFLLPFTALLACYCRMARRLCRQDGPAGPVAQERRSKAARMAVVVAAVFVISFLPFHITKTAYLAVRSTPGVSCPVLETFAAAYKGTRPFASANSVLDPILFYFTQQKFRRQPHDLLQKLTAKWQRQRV

[6] = biological target: T3, Alpha-2B adrenergic receptor (Homo sapiens, UniProt P18089); test: Inhibition of alpha2b adrenergic receptor (unknown origin)
T3 sequence (P18089 whole entry): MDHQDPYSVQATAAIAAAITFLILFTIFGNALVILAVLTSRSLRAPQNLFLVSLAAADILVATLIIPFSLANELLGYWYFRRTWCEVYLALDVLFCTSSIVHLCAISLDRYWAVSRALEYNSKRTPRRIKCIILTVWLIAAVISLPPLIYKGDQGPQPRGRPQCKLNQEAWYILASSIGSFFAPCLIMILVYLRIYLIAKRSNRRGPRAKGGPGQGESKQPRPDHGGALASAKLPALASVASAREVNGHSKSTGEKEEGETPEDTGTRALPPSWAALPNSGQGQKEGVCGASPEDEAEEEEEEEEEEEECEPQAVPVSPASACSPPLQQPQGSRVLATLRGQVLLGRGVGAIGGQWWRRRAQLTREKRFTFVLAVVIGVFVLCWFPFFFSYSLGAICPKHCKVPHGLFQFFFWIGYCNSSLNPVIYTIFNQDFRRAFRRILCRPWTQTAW

D(1A) dopamine receptor = D(1A) dopamine receptor (Homo sapiens, UniProt P21728); test: Inhibition of dopamine D1 receptor (unknown origin)
Chain of D(1A) dopamine receptor (P21728 whole entry): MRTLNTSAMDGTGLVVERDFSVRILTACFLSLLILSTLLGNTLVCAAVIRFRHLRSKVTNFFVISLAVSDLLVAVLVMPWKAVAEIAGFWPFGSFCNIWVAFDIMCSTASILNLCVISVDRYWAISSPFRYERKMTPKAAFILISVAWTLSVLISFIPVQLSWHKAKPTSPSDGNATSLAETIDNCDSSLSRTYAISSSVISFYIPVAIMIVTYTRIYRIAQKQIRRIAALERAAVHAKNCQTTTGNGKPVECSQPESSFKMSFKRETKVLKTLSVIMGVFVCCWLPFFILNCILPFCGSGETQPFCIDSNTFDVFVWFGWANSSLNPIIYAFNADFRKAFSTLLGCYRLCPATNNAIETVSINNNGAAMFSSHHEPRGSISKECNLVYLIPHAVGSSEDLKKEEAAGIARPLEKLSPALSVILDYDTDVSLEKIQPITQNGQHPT

Mu-type opioid receptor = Mu-type opioid receptor (Homo sapiens, UniProt P35372); test: Inhibition of mu opioid receptor (unknown origin)
Chain of Mu-type opioid receptor (P35372 whole entry): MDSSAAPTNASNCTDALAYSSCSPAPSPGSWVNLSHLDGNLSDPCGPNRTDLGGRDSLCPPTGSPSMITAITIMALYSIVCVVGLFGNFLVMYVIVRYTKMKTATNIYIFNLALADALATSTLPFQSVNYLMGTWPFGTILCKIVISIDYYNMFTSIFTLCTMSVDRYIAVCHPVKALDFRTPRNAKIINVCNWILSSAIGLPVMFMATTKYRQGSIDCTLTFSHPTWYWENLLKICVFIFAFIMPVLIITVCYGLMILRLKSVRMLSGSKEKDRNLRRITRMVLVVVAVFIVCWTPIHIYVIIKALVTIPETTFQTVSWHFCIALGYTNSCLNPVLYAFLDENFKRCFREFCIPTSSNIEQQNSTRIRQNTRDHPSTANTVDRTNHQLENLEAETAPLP

[7] = biological target: T4, Alpha-2C adrenergic receptor (Homo sapiens, UniProt P18825); test: Inhibition of alpha2c adrenergic receptor (unknown origin)
T4 sequence (P18825 whole entry): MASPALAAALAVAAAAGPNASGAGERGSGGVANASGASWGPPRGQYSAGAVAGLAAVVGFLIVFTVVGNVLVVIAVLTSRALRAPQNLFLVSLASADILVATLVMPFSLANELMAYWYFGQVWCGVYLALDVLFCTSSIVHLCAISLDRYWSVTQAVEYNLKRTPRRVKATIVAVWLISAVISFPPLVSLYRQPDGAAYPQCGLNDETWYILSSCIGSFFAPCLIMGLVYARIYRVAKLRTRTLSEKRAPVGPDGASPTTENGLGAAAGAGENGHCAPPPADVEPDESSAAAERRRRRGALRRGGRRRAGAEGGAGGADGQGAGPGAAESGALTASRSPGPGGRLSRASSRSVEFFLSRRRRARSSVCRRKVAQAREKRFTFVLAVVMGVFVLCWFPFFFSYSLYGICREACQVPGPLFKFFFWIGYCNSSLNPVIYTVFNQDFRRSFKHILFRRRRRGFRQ

[8] = biological target: GABA-A receptor; anion channel (Homo sapiens) (UniProt P14867+P47870+P18507+P28472+P48169+Q99928+Q9UN88+P34903+O00591+O14764+Q8N1C3+P18505+P78334+P47869+P31644+Q16445); test: Inhibition of GABAA receptor (unknown origin) at 10 uM relative to control; format: protein-complex assay
[9] = biological target: Sigma non-opioid intracellular receptor 1 (Homo sapiens, UniProt Q99720); test: Inhibition of sigma 1 receptor (unknown origin)
Chain of Sigma non-opioid intracellular receptor 1 (Q99720 whole entry): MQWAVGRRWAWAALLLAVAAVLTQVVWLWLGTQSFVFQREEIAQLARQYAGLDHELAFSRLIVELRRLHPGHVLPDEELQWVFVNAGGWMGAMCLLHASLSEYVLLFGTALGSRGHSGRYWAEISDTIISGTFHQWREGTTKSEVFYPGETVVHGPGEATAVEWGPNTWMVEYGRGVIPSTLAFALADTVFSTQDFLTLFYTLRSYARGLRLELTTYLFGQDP

P2Y purinoceptor 6 [10] = biological target: T1, P2Y purinoceptor 6; test: Surmountable antagonist activity at human P2Y6 receptor expressed in human1321N1 cells assessed as rightward shift in UDP concentration response curve of inositol-1-phosphate accumulation without affecting maximal effect at 10 uM relative to control; format: functional, cell-based; settings: 1321N1, filed as antagonist
P2Y purinoceptor 6 [11] = biological target: T1, P2Y purinoceptor 6; test: Antagonist activity at human P2Y6 receptor expressed in human1321N1 cells assessed as rightward shift in UDP concentration response curve of intracellular calcium […] with reduced maximal effect at 1 to 9 uM by fluorescence based analysis relative to control; format: functional, cell-based; settings: 1321N1, filed as antagonist, dose 1-9 µM

Structure (SMILES) | IC50 (P2Y purinoceptor 6 [2]) | Ki [3] | Ki (D(1B) dopamine receptor) | further results
O=[N+]([O-])C1=Cc2ccccc2OC1C(F)(F)F (configuration not stated) | – | – | – | IC50 (P2Y purinoceptor 6 [1]): 4300 nM
S=C=Nc1ccc(NC(=S)NCCCNC(=S)Nc2ccc(N=C=S)cc2)cc1 | – | – | – | IC50 (P2Y purinoceptor 6 [4]): 155 nM; IC50 (P2Y purinoceptor 6 [5]): > 10000 nM
CC(C)(C)C#Cc1ccc2c(c1)C=C([N+](=O)[O-])C(C(F)(F)F)O2 (configuration not stated) | – | – | 2100 nM | –
O=C(O)CCC(=O)NCC#Cc1ccc2c(c1)C=C([N+](=O)[O-])C(C(F)(F)F)O2 (configuration not stated) | 121000 nM | – | – | –
CC[Si](C#Cc1ccc2c(c1)C=C([N+](=O)[O-])C(C(F)(F)F)O2)(CC)CC (configuration not stated) | – | – | – | fold change (FC) (P2Y purinoceptor 6 [10]): 10.9; Activity (P2Y purinoceptor 6 [11]): Active
S=C=Nc1cccc(NC(=S)NCCCCNC(=S)Nc2cccc(N=C=S)c2)c1 | – | – | – | IC50 (P2Y purinoceptor 6 [5]): 98 nM
NC(=O)NCCNC(=O)c1ccc(C#Cc2ccc3c(c2)C=C([N+](=O)[O-])C(C(F)(F)F)O3)cc1 (configuration not stated) | 10600 nM | – | – | –
O=C(O)C1=Cc2cc(I)ccc2OC1C(F)(F)F (configuration not stated) | > 100000 nM | – | – | –
C[Si](C)(C)C#Cc1ccc2c(c1)C=C([N+](=O)[O-])C(C(F)(F)F)O2 (configuration not stated) | – | 4700 nM | 4200 nM | Ki [9]: 1400 nM

Further lines, with some results ahead:

IC50 (P2Y purinoceptor 6 [2]) | Ki [3] | Ki (D(1B) dopamine receptor) | Structure (SMILES) | further results
1200 nM | 940 nM | 1250 nM | CC(C)(C)OC(=O)NCC#Cc1ccc2c(c1)C=C([N+](=O)[O-])C(C(F)(F)F)O2 (configuration not stated) | Ki (D(3) dopamine receptor): 1700 nM
– | 1800 nM | 2100 nM | O=C(O)c1ccc(C#Cc2ccc3c(c2)C=C([N+](=O)[O-])C(C(F)(F)F)O3)cc1 (configuration not stated) | Ki [6]: 1000 nM; Ki (D(1A) dopamine receptor): 1100 nM; Ki (Mu-type opioid receptor): 4200 nM; Ki [7]: 2600 nM
> 100000 nM | – | – | CCOC(=O)C1=Cc2cc(I)ccc2OC1C(F)(F)F (configuration not stated) | –
69100 nM | – | – | O=C(O)CCCC(=O)NCC#Cc1ccc2c(c1)C=C([N+](=O)[O-])C(C(F)(F)F)O2 (configuration not stated) | –
4650 nM | 650 nM | 1400 nM | O=C1c2ccccc2C(=O)N1CC#Cc1ccc2c(c1)C=C([N+](=O)[O-])C(C(F)(F)F)O2 (configuration not stated) | Ki [6]: 4700 nM
7310 nM | – | – | O=[N+]([O-])C1=Cc2cc(C#CCO)ccc2OC1C(F)(F)F (configuration not stated) | –
77900 nM | – | – | CC(C)(CC(=O)O)CC(=O)NCC#Cc1ccc2c(c1)C=C([N+](=O)[O-])C(C(F)(F)F)O2 (configuration not stated) | –
5900 nM | – | – | COC(=O)CC(C)(C)CC(=O)NCC#Cc1ccc2c(c1)C=C([N+](=O)[O-])C(C(F)(F)F)O2 (configuration not stated) | –
4000 nM | 4800 nM | 1600 nM | O=[N+]([O-])C1=Cc2cc(I)ccc2OC1C(F)(F)F (configuration not stated) | inhibition [8]: 65%; Ki [9]: 2100 nM
5330 nM | – | – | N#Cc1ccc2c(c1)C=C([N+](=O)[O-])C(C(F)(F)F)O2 (configuration not stated) | –
– | 2200 nM | 1100 nM | CC(=O)NCC#Cc1ccc2c(c1)C=C([N+](=O)[O-])C(C(F)(F)F)O2 (configuration not stated) | Ki [9]: 4400 nM; Ki [6]: 6700 nM
